Assay [1] deals with MV-4-11 cell line derived xenograft. Briefly: MV-4-11 cell line derived xenograft model. Type of assay: in vivo.
Assay [2] has as its system primary AML patient samples. Briefly: Cell viability GI50 against primary AML patient samples (CellTiter-Glo). The assay is classed as cell-based. The method, then: Compounds were diluted in DMSO (<0.05% DMSO) and dispensed into a 384-well plate using the Echo 555 liquid handler (Labcyte). Following the addition of compounds, cells were pipetted into the 384-well plates at a concentration of between 2,000 and 8,000 cells per well in IMDM or RPMI media, as noted above, supplemented with 10% FBS and incubated at 37° C., 5% CO2 in a tissue culture incubator. Plates were incubated for 48 hours, and cell viability was measured using the CellTiter-Glo reagent (Promega). Percent viability was defined as relative luminescence units (RLU) of each well divided by the RLU of cells in DMSO control. Dose-response curves and GI50 values were determined using linear regression of double-log transformed data (GraphPad Prism version 6.0 h). Control bone marrow-derived CD34+ cells were purchased from STEMCELL Technologies.

The test system of the next assay is untransformed lines. To be noted: cited from earlier work.
Assay [3] deals with E1A oncogene transformed cell lines. To be noted: cited from earlier work.
The test system of assay [4] is NCI-60 cell lines that do not exhibit the Warburg effect. To be noted: cited from earlier work.

Where two headings read alike, the source gives them in different places.

Regarding `COCCC[C@H]1O[C@@](O)([C@H](C)[C@@H]2C[C@H](OC)[C@H](O)\C=C(C)/C=C(C)\C=C(\C)[C@@H](O[C@@H]3O[C@@H](C)[C@H](O)[C@@H](O)[C@@H]3O)[C@H](C)\C=C(C)/C=C(OC)\C=C(\C)C(=O)O2)[C@H](OC)[C@@H](O)[C@]1(C)O[C@H]1C[C@H](O)[C@H](O[C@H]2C[C@@](C)(O)[C@H](O)[C@@H](C)O2)[C@@H](C)O1` [ammocidin A], the “efficacy in xenograft model” value in assay [1] is reported as “comparable efficacy”. In addition, the GI50 in assay [2] (patient sample 17-03-006, data collected Jul. 8, 2021, read-out: GI50 from double log regression (converted)) is 32.1 nM; in assay [2] (patient sample 17-03-006, data collected Jul. 8, 2021, read-out: viability GI50 from Prism) it was 10.3 nM; in assay [2] (patient sample 17-03-006, data collected Mar. 8, 2022, read-out: GI50 from double log regression (converted)) it was 30.8 nM; in assay [2] (patient sample 17-03-006, data collected Mar. 8, 2022, read-out: viability GI50 from Prism) it was 9.5 nM; in assay [2] (patient sample 18-12-001, data collected Jul. 8, 2021, read-out: GI50 from double log regression (converted)) it was 31.2 nM; in assay [2] (patient sample 18-12-001, data collected Jul. 8, 2021, read-out: viability GI50 from Prism) it was 30.2 nM. Also, the GI50 is 75.4 nM in assay [2] (patient sample 18-12-001, data collected Mar. 8, 2022, read-out: GI50 from double log regression (converted)); 21.7 nM in assay [2] (patient sample 29-09-002, data collected Jul. 8, 2021, read-out: GI50 from double log regression (converted)); 15.8 nM in assay [2] (patient sample 29-09-002, data collected Jul. 8, 2021, read-out: viability GI50 from Prism).

Regarding `COC[C@@H](C[C@H]1O[C@@](O)([C@H](O)[C@@H]2C[C@H](OC)[C@@H](O)CC/C=C(C)/C=C/[C@@H](O[C@@H]3O[C@@H](C)[C@H](OC)[C@@H](O)[C@@H]3O)[C@H](C)/C=C(C)/C=C(C)/C=C(\C)C(=O)O2)[C@H](C)[C@@H](O)[C@H]1C)OC1C[C@](C)(O)[C@@H](O[C@H]2C[C@@H](OC)[C@H](O)[C@@H](C)O2)[C@H](C)O1` (some centres unmarked) [apoptolidin, Apoptolidin A], the “potency against untransformed lines” value in the assay with untransformed lines is 10 µM. In addition, the “potency against transformed cells” value in assay [3] (transformed cells) is recorded as 10 nM. In assay [3] (transformed vs untransformed), the “fold more potent against transformed cells than untransformed lines” value is recorded as 1,000 fold. Further, the “activity in NCI-60 cell lines relying on oxidative phosphorylation” value in assay [4] is on record as “low nanomolar”.

The values are drawn from US20240254157A1, “MACROLIDE COMPOUNDS” (VANDERBILT UNIVERSITY, priority 2021, published 2024).
